Laboratory results published in patent publication US11000033B2, “Ketone or oxime compound, and herbicide” (NISSAN CHEMICAL CORPORATION, priority 2014, dated 2021).

What was measured:
Assay type in all cases: in vivo
Abutilon theophrasti = assay: Test Example 4: herbicidal effect by soil treatment (symbol M); conditions: application herbicide amount 320 g/ha
Method in brief: (§1)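 Seeds were sown in sterilized diluvial soil, covered with about 1.5 cm of soil, and the soil surface was sprayed with a water-diluted emulsion of the compound at a predetermined rate. Plants grew in a greenhouse at 25° C. to 30° C.; effects were scored visually 3 weeks after application.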

rice = assay: Test Example 4: effect on crop by soil treatment (symbol b); conditions: application herbicide amount 320 g/ha
Method in brief: (§2)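 Greenhouse culture at 25° C. to 30° C. followed sowing of seed in spots on sterilized diluvial soil with a soil cover close to 1.5 cm thick.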

corn = assay: Test Example 5: effect on crop by foliage application, plastic box (symbol c); conditions: 320 g/ha, 3 weeks after application
Method in brief: (§3)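 A greenhouse held between 25° C. and 30° C. was used to grow plants sown spot-wise, beneath ~1.5 cm of soil, in boxes of sterilized diluvial soil.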

[1] = tested on: Echinochloa crus-galli var. crus-galli; assay: Test Example 4: herbicidal effect by soil treatment (symbol H); conditions: application herbicide amount 320 g/ha
Method in brief: as §1

Avena fatua [2] = assay: Test Example 5: herbicidal effect by foliage application, plastic box (symbol I); conditions: 320 g/ha, 3 weeks after application
Method in brief: (§4)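 Effect is rated 3 weeks after a foliar spray of water-diluted emulsion concentrate at a predetermined herbicide amount. Plants had grown 14 days in a 25° C. to 30° C. greenhouse from seed in sterilized diluvial soil.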

soybean = assay: Test Example 4: effect on crop by soil treatment (symbol d); conditions: application herbicide amount 320 g/ha
Method in brief: as §2

beet = assay: Test Example 4: effect on crop by soil treatment (symbol f); conditions: application herbicide amount 320 g/ha
Method in brief: as §2

Apera spica-venti = assay: Test Example 5: herbicidal effect by foliage application, plastic box (symbol L); conditions: 320 g/ha, 3 weeks after application
Method in brief: as §4

[3] = tested on: Echinochloa crus-galli var. crus-galli; assay: Test Example 5: herbicidal effect by foliage application, plastic box (symbol H); conditions: 320 g/ha, 3 weeks after application
Method in brief: as §4

Avena fatua [4] = assay: Test Example 4: herbicidal effect by soil treatment (symbol I); conditions: application herbicide amount 320 g/ha
Method in brief: as §1

Monochoria vaginalis [5] = assay: Test Example 2: herbicidal activity, application during weed generation in submerged conditions (symbol C); conditions: Table 23; application herbicide amount 320 g/ha; grade 0-5 by criteria of Test Example 1
Method in brief: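 Each pot contained alluvial soil under 4 cm of water with seeds of all three weeds sown together. Following growth at 25° C. to 30° C. to the one- to two-leaf stage, the floodwater received diluted emulsion at a predetermined amount; visual assessment followed at 3 weeks.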

Monochoria vaginalis [6] = assay: Test Example 1: herbicidal activity, application before weed generation in submerged conditions (symbol C); conditions: application herbicide amount 320 g/ha
Method in brief: (§5)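 Paddy pre-emergence test. Formulated emulsion, water-diluted to a predetermined rate, is applied to floodwater on sowing day; rice transplanted at 2.5 leaves. Effect read at 3 weeks on a 0–5 herbicidal-ratio scale.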

[7] = tested on: Echinochloa oryzacola Vasing.; assay: Test Example 1: herbicidal activity, application before weed generation in submerged conditions (symbol A); conditions: application herbicide amount 320 g/ha
Method in brief: as §5

rapeseed = assay: Test Example 5: effect on crop by foliage application, plastic box (symbol g); conditions: 320 g/ha, 3 weeks after application
Method in brief: as §3

Setaria viridis = assay: Test Example 5: herbicidal effect by foliage application, plastic box (symbol G); conditions: 320 g/ha, 3 weeks after application
Method in brief: as §4

CON=C(C)CC1CC(OC(=O)COc2ccccc2)=C(c2c(C)cc(C)cc2OC)C1=O (stereo not drawn) [6-091]
Herbicidal effect grade, M: Abutilon theophrasti (Abutilon theophrasti): 5 (Herbicidal ratio of 90% or more (almost completely withered))
Effect on crop grade, b: directly sowed rice plant (rice): 5 (Herbicidal ratio of 90% or more (almost completely withered))
c: corn, effect on crop (criteria of Test Example 1) (corn): 5 (Herbicidal ratio of 90% or more (almost completely withered))
Herbicidal effect grade, H: Echinochloa crus-galli var. crus-galli [1]: 5 (Herbicidal ratio of 90% or more (almost completely withered))
I: Avena fatua, herbicidal effect (criteria of Test Example 1) (Avena fatua [2]): 5 (Herbicidal ratio of 90% or more (almost completely withered))
Effect on crop grade, d: soybean (soybean): 1 (Herbicidal ratio of 5% or higher and lower than 20%)
Effect on crop grade, f: beet (beet): 1 (Herbicidal ratio of 5% or higher and lower than 20%)
L: Apera spica-venti, herbicidal effect (criteria of Test Example 1) (Apera spica-venti): 5 (Herbicidal ratio of 90% or more (almost completely withered))
H: Echinochloa crus-galli var. crus-galli, herbicidal effect (criteria of Test Example 1) [3]: 5 (Herbicidal ratio of 90% or more (almost completely withered))
Herbicidal effect grade, I: Avena fatua (Avena fatua [4]): 5 (Herbicidal ratio of 90% or more (almost completely withered))
Herbicidal effect grade, C: Monochoria vaginalis (Monochoria vaginalis [5]): 3 (Herbicidal ratio of 40% or higher and lower than 70%)
Herbicidal effect grade, C: Monochoria vaginalis (Monochoria vaginalis [6]): 4 (Herbicidal ratio of 70% or higher and lower than 90%)
Herbicidal effect grade, A: Echinochloa oryzacola Vasing. [7]: 5 (Herbicidal ratio of 90% or more (almost completely withered))
g: rapeseed, effect on crop (criteria of Test Example 1) (rapeseed): 5 (Herbicidal ratio of 90% or more (almost completely withered))
G: Setaria viridis, herbicidal effect (criteria of Test Example 1) (Setaria viridis): 5 (Herbicidal ratio of 90% or more (almost completely withered))

CON=C(C)CC1CC(OC(=O)C(C)CSC)=C(c2c(C)cc(-c3ccc(Cl)cc3)cc2C)C1=O (stereo not drawn) [6-086]
Herbicidal effect grade, M: Abutilon theophrasti (Abutilon theophrasti): 0 (Herbicidal ratio of 5% or lower (almost no effect))
Effect on crop grade, b: directly sowed rice plant (rice): 1 (Herbicidal ratio of 5% or higher and lower than 20%)
c: corn, effect on crop (criteria of Test Example 1) (corn): 3 (Herbicidal ratio of 40% or higher and lower than 70%)
Herbicidal effect grade, H: Echinochloa crus-galli var. crus-galli [1]: 5 (Herbicidal ratio of 90% or more (almost completely withered))
I: Avena fatua, herbicidal effect (criteria of Test Example 1) (Avena fatua [2]): 5 (Herbicidal ratio of 90% or more (almost completely withered))
Effect on crop grade, d: soybean (soybean): 5 (Herbicidal ratio of 90% or more (almost completely withered))
Effect on crop grade, f: beet (beet): 1 (Herbicidal ratio of 5% or higher and lower than 20%)
L: Apera spica-venti, herbicidal effect (criteria of Test Example 1) (Apera spica-venti): 5 (Herbicidal ratio of 90% or more (almost completely withered))
H: Echinochloa crus-galli var. crus-galli, herbicidal effect (criteria of Test Example 1) [3]: 5 (Herbicidal ratio of 90% or more (almost completely withered))
Herbicidal effect grade, I: Avena fatua (Avena fatua [4]): 4 (Herbicidal ratio of 70% or higher and lower than 90%)
Herbicidal effect grade, C: Monochoria vaginalis (Monochoria vaginalis [5]): 3 (Herbicidal ratio of 40% or higher and lower than 70%)
Herbicidal effect grade, C: Monochoria vaginalis (Monochoria vaginalis [6]): 0 (Herbicidal ratio of 5% or lower (almost no effect))
Herbicidal effect grade, A: Echinochloa oryzacola Vasing. [7]: 5 (Herbicidal ratio of 90% or more (almost completely withered))
g: rapeseed, effect on crop (criteria of Test Example 1) (rapeseed): 4 (Herbicidal ratio of 70% or higher and lower than 90%)
G: Setaria viridis, herbicidal effect (criteria of Test Example 1) (Setaria viridis): 5 (Herbicidal ratio of 90% or more (almost completely withered))

CON=C(C)CC1CC(OC(=O)N2CCCCC2)=C(c2c(C)cc(C)cc2OC)C1=O (stereo not drawn) [6-111]
Herbicidal effect grade, M: Abutilon theophrasti (Abutilon theophrasti): 0 (Herbicidal ratio of 5% or lower (almost no effect))
Effect on crop grade, b: directly sowed rice plant (rice): 1 (Herbicidal ratio of 5% or higher and lower than 20%)
c: corn, effect on crop (criteria of Test Example 1) (corn): 5 (Herbicidal ratio of 90% or more (almost completely withered))
Herbicidal effect grade, H: Echinochloa crus-galli var. crus-galli [1]: 4 (Herbicidal ratio of 70% or higher and lower than 90%)
I: Avena fatua, herbicidal effect (criteria of Test Example 1) (Avena fatua [2]): 5 (Herbicidal ratio of 90% or more (almost completely withered))
Effect on crop grade, d: soybean (soybean): 0 (Herbicidal ratio of 5% or lower (almost no effect))
Effect on crop grade, f: beet (beet): 0 (Herbicidal ratio of 5% or lower (almost no effect))
L: Apera spica-venti, herbicidal effect (criteria of Test Example 1) (Apera spica-venti): 5 (Herbicidal ratio of 90% or more (almost completely withered))
H: Echinochloa crus-galli var. crus-galli, herbicidal effect (criteria of Test Example 1) [3]: 5 (Herbicidal ratio of 90% or more (almost completely withered))
Herbicidal effect grade, I: Avena fatua (Avena fatua [4]): 0 (Herbicidal ratio of 5% or lower (almost no effect))
Herbicidal effect grade, C: Monochoria vaginalis (Monochoria vaginalis [5]): 4 (Herbicidal ratio of 70% or higher and lower than 90%)
Herbicidal effect grade, C: Monochoria vaginalis (Monochoria vaginalis [6]): 2 (Herbicidal ratio of 20% or higher and lower than 40%)
Herbicidal effect grade, A: Echinochloa oryzacola Vasing. [7]: 5 (Herbicidal ratio of 90% or more (almost completely withered))
g: rapeseed, effect on crop (criteria of Test Example 1) (rapeseed): 4 (Herbicidal ratio of 70% or higher and lower than 90%)
G: Setaria viridis, herbicidal effect (criteria of Test Example 1) (Setaria viridis): 5 (Herbicidal ratio of 90% or more (almost completely withered))

CON=C(C)CC1CC(OS(=O)(=O)N(C)C)=C(c2c(C)cc(C)cc2OC)C1=O (stereo not drawn) [6-095]
Herbicidal effect grade, M: Abutilon theophrasti (Abutilon theophrasti): 5 (Herbicidal ratio of 90% or more (almost completely withered))
Effect on crop grade, b: directly sowed rice plant (rice): 5 (Herbicidal ratio of 90% or more (almost completely withered))
c: corn, effect on crop (criteria of Test Example 1) (corn): 5 (Herbicidal ratio of 90% or more (almost completely withered))
Herbicidal effect grade, H: Echinochloa crus-galli var. crus-galli [1]: 5 (Herbicidal ratio of 90% or more (almost completely withered))
I: Avena fatua, herbicidal effect (criteria of Test Example 1) (Avena fatua [2]): 5 (Herbicidal ratio of 90% or more (almost completely withered))
Effect on crop grade, d: soybean (soybean): 0 (Herbicidal ratio of 5% or lower (almost no effect))
Effect on crop grade, f: beet (beet): 0 (Herbicidal ratio of 5% or lower (almost no effect))
L: Apera spica-venti, herbicidal effect (criteria of Test Example 1) (Apera spica-venti): 5 (Herbicidal ratio of 90% or more (almost completely withered))
H: Echinochloa crus-galli var. crus-galli, herbicidal effect (criteria of Test Example 1) [3]: 5 (Herbicidal ratio of 90% or more (almost completely withered))
Herbicidal effect grade, I: Avena fatua (Avena fatua [4]): 3 (Herbicidal ratio of 40% or higher and lower than 70%)
Herbicidal effect grade, C: Monochoria vaginalis (Monochoria vaginalis [5]): 2 (Herbicidal ratio of 20% or higher and lower than 40%)
Herbicidal effect grade, C: Monochoria vaginalis (Monochoria vaginalis [6]): 0 (Herbicidal ratio of 5% or lower (almost no effect))
Herbicidal effect grade, A: Echinochloa oryzacola Vasing. [7]: 5 (Herbicidal ratio of 90% or more (almost completely withered))
g: rapeseed, effect on crop (criteria of Test Example 1) (rapeseed): 4 (Herbicidal ratio of 70% or higher and lower than 90%)
G: Setaria viridis, herbicidal effect (criteria of Test Example 1) (Setaria viridis): 5 (Herbicidal ratio of 90% or more (almost completely withered))
